# Source: patent publication US12697366B2, “Thermogenic compositions and methods” (Ohio State Innovation Foundation, priority 2016, dated 2026)
# System: 3T3-L1 preadipocytes
# Test: FD-glucose uptake in 3T3-L1 preadipocytes
# Type: cell-based, mouse
# Conditions: for glucose uptake compared to non-stimulated 3T3-L1 preadipocytes: 30 mins, insulin 10 μg/ml, EREG 50 ng/ml, forskolin 4 μg/ml
# Protocol: Non-differentiated, 90% confluent 3T3-L1 cells were starved with glucose-deprived medium for 40 min. Then cells were treated in the presence and absence of different concentrations of nanoscaffold #2 and bovine insulin (200 μg/mL), all of reagents dissolved in the same glucose-deprived medium but containing fluorescent-D (FD)-glucose for 80 min. Thereafter, the FD glucose uptake was measured according to manufacturer's instructions (Cayman Chemical, USA, cat #600471). […] Non-differentiated, 90% confluent 3T3-L1 cells treated in the presence and absence of different concentrations of nanoscaffold #2 and bovine insulin (10 μg/mL) or mouse epiregulin (EREG, 0.05 μg/mL) and incubated for 24 h. Then cells were starved with glucose-deprived medium for 40 min and, then incubated with fluorescent-D (FD)-glucose for 80 min. Thereafter, the FD glucose uptake was measured according to manufacturer's instructions (Cayman Chemical, USA, cat #600471). Data are shown as percent of uptake in the presence of insulin (100%).
# Non-differentiated, 90% confluent 3T3-L1 cells treated in the presence of bovine insulin (10 μg/mL), mouse epiregulin (EREG, 0.05 μg/mL), or their combinations and incubated for 24 h. Then cells were starved with glucose-deprived medium for 40 min and, then incubated with fluorescent-D (FD)-glucose for 80 min. Thereafter, the FD glucose uptake was measured according to manufacturer's instructions (Cayman Chemical, USA, cat #600471).
# Non-differentiated, 90% confluent 3T3-L1 cells were starved with glucose-deprived medium for 50 min. Then cells were treated in the presence and absence of different concentrations of mouse recombinant IGFBP4 with and without nanoscaffold #2 and human insulin (10 μg/mL). All of reagents were dissolved in the same glucose-deprived medium but containing fluorescent-D (FD)-glucose for 90 min. Thereafter, the FD glucose uptake was measured according to manufacturer's instructions (Cayman Chemical, USA, cat #600471).
# Glucose uptake assay was performed using glucose uptake cell-based assay kit (Cayman Chemical, Ann Arbor, MI). 3T3-L1 or human preadipocytes were cultured at a density of 5×10^4 per well into a 96-well plate (n=7) in high glucose media and grown overnight. Old cell culture medium was removed the next day and washed with PBS to remove residual glucose. Supplied 2-deoxy-2-[(7-nitro-2,1,3-benzoxadiazol-4-yl)amino]-D-glucose) (2-NBDG) was diluted to 150 μg/mL in DMEM medium without glucose, phenol red, L-glutamine, sodium pyruvate, and HEPES (Life technologies, Grand Island, New York). 100 μL of 2-NBDG glucose free medium with or without recombinant EREG and other treatments was added to the plated cells. After incubating at 37° C. for 30 minutes, cells were washed gently two times with 200 μL of glucose assay buffer. 100 μL of the assay buffer was added to each well and measured for fluorescence at an excitation/emission of 485/535 nm.
# Fluorescence glucose uptake (FD-glucose assay) was performed as described PMID: 32065973, using insulin, 1.7 μM and different AACs at concentration 0.1 μM.
# FD-glucose uptake in mouse 3T3-L1 preadipocytes (n=8 per treatment) treated with vehicle (Veh; PBS, open bar) or hINS (1.7 μM), mouse leptin (mLep; 12.5 nM, hatched bar), or AAC2 (0.1 μM black bar) in the presence and absence of GLUT1 inhibitor (BAY-876; 10 nM in DMSO). Cells were pre-treated with or without BAY-876 for 40 min and then FD glucose and treatment reagents were added for additional 80 min of incubation. Data (%) was normalized to FD-glucose uptake in control (Veh) 3T3-L1 cells without inhibitor (100%). Student's independent t-test.
Substance,glucose uptake compared to non-stimulated 3T3-L1 preadipocytes,"glucose uptake in preadipocytes (hINS 1.7 μM, AAC2 0.1 μM, 80 min, FIG. 42A)","glucose uptake, dose dependence (different EREG concentrations)"
insulin: insulin (bovine or human),174%,increase,–
"EREG: Epiregulin, member of the epidermal growth factor family; recombinant mouse or human protein",187%,–,dose-dependent fashion
